Assay results: PMC6273446, “Preliminary LC-MS Based Screening for Inhibitors of Plasmodium falciparum Thioredoxin Reductase (PfTrxR) among a Set of Antimalarials from the Malaria Box” (Molecules, 2016)
Where two headings read alike, the source gives them in different places.

Experiments:
P. falciparum 3D7 = conditions: read-out: Pf(3D7) EC50, cited from earlier work
[1] = target: T1, Plasmodium falciparum thioredoxin reductase (PfTrxR) (Plasmodium falciparum, UniProt P61076); assay: biochemical; type: biochemical; conditions: for IC50: cytosolic PfTrxR (PfTrxR 1 isoform), titrated 50 to 0.07 µM; for Hill slope of dose response curve against PfTrxR: Figure 2
T1 sequence (P61076 1-541 isoform P61076-2): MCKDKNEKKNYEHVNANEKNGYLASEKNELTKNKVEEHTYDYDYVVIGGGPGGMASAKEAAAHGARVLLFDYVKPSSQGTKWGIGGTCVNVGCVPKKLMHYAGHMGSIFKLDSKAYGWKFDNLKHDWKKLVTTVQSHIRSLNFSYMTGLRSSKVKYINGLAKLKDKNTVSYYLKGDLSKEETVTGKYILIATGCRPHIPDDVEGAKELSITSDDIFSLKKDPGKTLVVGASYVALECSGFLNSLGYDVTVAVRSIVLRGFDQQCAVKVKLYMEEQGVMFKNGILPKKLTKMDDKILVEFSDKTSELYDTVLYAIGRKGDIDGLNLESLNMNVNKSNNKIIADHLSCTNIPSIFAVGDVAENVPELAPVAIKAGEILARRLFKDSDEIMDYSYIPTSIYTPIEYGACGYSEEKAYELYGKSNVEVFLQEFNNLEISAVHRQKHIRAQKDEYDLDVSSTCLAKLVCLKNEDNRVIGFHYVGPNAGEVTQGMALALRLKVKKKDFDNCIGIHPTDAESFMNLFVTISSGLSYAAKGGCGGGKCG

[2] = test system: MRC-5 cells (human fetal lung cells); conditions: cited from earlier work
[3] = chloroquine sensitive, sulfadoxine resistant strain, MMV database ref 10
[4] = read-out: MRC-5 Cells IC50, human fetal lung cells, cytotoxicity, MMV database ref 10

| SMILES | IC50 [1] | Hill slope of dose response curve against PfTrxR [1] | EC50 (P. falciparum 3D7; [3]) | EC50 (P. falciparum 3D7) | IC50 [2] | IC50 [2, 4] |
| --- | --- | --- | --- | --- | --- | --- |
| C[C@@H]1CC[C@H]2[C@@H](C)C(=O)O[C@@H]3O[C@@]4(C)CC[C@@H]1[C@]32OO4 [Artemisinin, reference compound] |  |  | 20.7 nM |  |  |  |
| CCN(CC)CCCC(C)Nc1ccnc2cc(Cl)ccc12 (centres unmarked) [Chloroquine, reference compound] |  |  | 27.3 nM |  |  |  |
| N.N.[Cl][Pt][Cl] [Cisplatin, reference compound] |  |  |  |  | 19600 nM |  |
| CCc1c(C)c(=N)c2ccccc2n1C [Compound 1, 2-ethyl-1,3-dimethylquinolin-4-imine;hydroiodide] | 3500 nM | 1.1420 | 378 nM |  |  |  |
| COc1ccccc1NC1=C(N2CCCCC2)C(=O)c2ccccc2C1=O [Compound 2, 2-(2-methoxyanilino)-3-piperidin-1-ylnaphthalene-1,4-dione] | 900 nM | 0.6031 | 5.3 nM |  |  | 68700 nM |
| CCCc1c(CC)c(=N)c2ccccc2n1C [Compound 5, 3-ethyl-1-methyl-2-propylquinolin-4-imine;hydron;iodide] | 7500 nM | 1.1510 | 242 nM |  |  | 71200 nM |

Now from value to compound, other results behind:

| IC50 [1] | Hill slope of dose response curve against PfTrxR [1] | SMILES | EC50 (P. falciparum 3D7; [3]) | EC50 (P. falciparum 3D7) | IC50 [2] | IC50 [2, 4] |
| --- | --- | --- | --- | --- | --- | --- |
| > 10000 nM |  | O=C1C(O)=C([C@H]2CC[C@H](c3ccc(Cl)cc3)CC2)C(=O)c2ccccc21 [Atovaquone, reference compound] |  | 0.24 nM |  |  |
| 6600 nM | 0.8022 | CCOc1cc2c(cc1OCC)C(c1cc(OC)c(O)cc1Cl)NCC2 (centres unmarked) [Compound 3, 5-chloro-4-(6,7-diethoxy-1,2,3,4-tetrahydroisoquinolin-1-yl)-2-methoxyphenol] | 370 nM |  |  | 85400 nM |
|  | 2.0020 | COc1ccc(-c2c(C)nn3c(N)c(C#N)cnc23)cc1OC [Compound 4, 7-amino-3-(3,4-dimethoxyphenyl)-2-methylpyrazolo[1,5-a]pyrimidine-6-carbonitrile] | 477 nM |  |  | > 100000 nM |
